Like-named read-outs stand apart in the source and are kept apart here.

One may read the Kd as the concentration at which binding is half-saturated.

The target in test [1] is α2-adrenoceptor. Briefly: Saturation radioligand binding of [^3H]-RX821002 to sheep anorectal tissue membranes. As to the method:
Fresh sheep anorectal tissues were dissected from whole buttock from sheep within four hours of slaughter. The buttocks were delivered in a dry bag and stored at 4° C. until dissected. The tissues used in this experiment included rectal smooth muscle (RSM), rectal mucosa (RM), anal mucosa (AM), internal anal sphincter (IAS), sheep rectal artery (SRA), sheep rectal vein (SRV), and the terminal branches of rectal vessels (TB). The dissected tissues were kept at −20° C. until used. Prior to starting an experiment, the tissue was removed from the freezer and allowed to defrost on ice. […] Non-specific binding was determined using an excessive amount of unlabelled specific receptor ligand. […] Three ml of scintillation fluid (PerkinElmer, UK) was subsequently added into each vial, and left at least 8 hours (preferably overnight) before processing for radioactivity measurement. The amount of radioactivity bound to the filters was measured using a liquid scintillation analyser (Tri-Carb 2100TR, PerkinElmer, UK). The radioactivity was reported as disintegrations per minute (dpm). […] Specific binding of the radioligand to the membranes was calculated by subtracting the non-specific binding from the total binding. Receptor density (Bmax) and ligand dissociation constant (Kd) were then calculated using the specific saturation binding curve of each experiment.

Test [2] has as its target α2-adrenoceptor. The note with it: porcine vessels; cited from earlier work.

Regarding `COC1(C2=NCCN2)COc2ccccc2O1` (stereo not drawn) [[^3H]-RX821002, 2-(2-methoxy-1,4-benzodioxan-2-yl)-2-imidazoline], the Kd in test [1] (sheep rectal arteries, read-out: Kd of radioligand for α2-adrenoceptor) is 1.42 nM; in test [1] (sheep rectal vein and terminal branches of sheep rectal vessels, read-out: Kd of α2-adrenoceptor), about 0.3 nM; in test [2] it was 1.3 to 2.2 nM.

The record behind these values is patent US20160287536A1, “Composition” (THE UNIVERSITY OF NOTTINGHAM, priority 2013, published 2016).
